Assay results from patent publication US20250186404A1, “METHODS OF USING A (THIAZOLYL)BENZENESULFONAMIDE DERIVATIVE” (Cyteir Therapeutics, Inc., priority 2023, published 2025).

Legend:
Type in all cases: cell-based
human MCT1 [1] = target: T1, human MCT1 (Homo sapiens, UniProt P53985); experiment: MCT1 Transport Inhibition Assay (TPGA uptake, LC-MS/MS)
T1 construct: host or cells: MDCK-II (canine) cells, transient co-transfection
T1 sequence (P53985 1-500): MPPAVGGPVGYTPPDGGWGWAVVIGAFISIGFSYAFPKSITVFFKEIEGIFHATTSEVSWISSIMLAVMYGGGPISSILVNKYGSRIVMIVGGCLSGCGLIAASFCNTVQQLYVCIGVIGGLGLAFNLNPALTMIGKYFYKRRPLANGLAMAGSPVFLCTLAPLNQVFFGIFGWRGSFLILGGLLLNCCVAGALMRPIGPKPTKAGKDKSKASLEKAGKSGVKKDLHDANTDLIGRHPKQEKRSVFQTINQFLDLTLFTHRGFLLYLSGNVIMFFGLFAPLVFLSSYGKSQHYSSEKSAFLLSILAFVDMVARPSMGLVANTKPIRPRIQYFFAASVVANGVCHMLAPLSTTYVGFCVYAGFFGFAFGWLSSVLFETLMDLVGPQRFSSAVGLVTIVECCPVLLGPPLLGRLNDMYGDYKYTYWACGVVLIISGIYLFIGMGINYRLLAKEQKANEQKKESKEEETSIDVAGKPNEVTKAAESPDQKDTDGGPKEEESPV
T1 sequence (P35613 140-385 partner limits assumed): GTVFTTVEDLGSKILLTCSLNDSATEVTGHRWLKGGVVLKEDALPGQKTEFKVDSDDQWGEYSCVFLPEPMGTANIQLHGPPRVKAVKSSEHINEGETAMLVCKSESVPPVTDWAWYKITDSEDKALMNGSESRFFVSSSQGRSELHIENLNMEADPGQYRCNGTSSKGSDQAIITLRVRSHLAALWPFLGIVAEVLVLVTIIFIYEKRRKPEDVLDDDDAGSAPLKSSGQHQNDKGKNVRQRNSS
Experimental: Inhibition of MCT1 transport after treatment with compounds of the present invention was measured in MDCK-II cells that overexpress human MCT1 by quantifying the transport of 2-Thiophene-glycoxylic acid (TPGA) into cells using LC-MS/MS.
MDCK-II cells are seeded at 60,000 cells per well in growth medium (low-glucose DMEM+10% FBS) in 96-well trans-well membrane plates, and incubated overnight (37° C., 5% CO2). Cells were co-transfected with mammalian expression constructs coding for MCT1 and CD147 at a 2:1 ratio or an empty vector control (GFP) and then incubated for 48 h (37° C., 5% CO2). Cells were washed 3 times with HBSS and cells were preincubated with inhibitors or vehicle control at room temperature in HBSS for 30 min with orbital shaking (60 rpm). HBSS was aspirated from the wells and replaced with HBSS with 25 mM Bis-Tris pH5.5+inhibitor or vehicle control+500 μM TPGA and incubated for 1 min at room temperature with orbital shaking (60 rpm). Both the apical and basolateral side of the trans-well insert were washed 4 times with ice-cold PBS. Cells were lysed with 60 μL of cell extraction solution, and the amount of TPGA in each well was quantified in triplicate by LC-MS/MS. The MCT1-mediated uptake rate was calculated using the following equation: […]
Percent inhibition for each concentration of inhibitor tested was calculated using the following equation: […]
Curves were fit to the calculated percent inhibition for each inhibitor, and the IC50 representing the concentration of inhibitor at which MCT1 is inhibited by 50% was calculated from this curve.
Canine MDCKII cells expressing human MCT1 were treated with a titration of Compound 67A, and import of the MCT1 substrate, 2-TPGA was measured by LC-MS (FIG. 1).

human MCT1 [2] = target: T2, human MCT1 (Homo sapiens, UniProt P53985); experiment: Inhibition of 3BP import (rescue of viability) in MCT1-overexpressing INS-1 cells; conditions: INS-1 cells over-expressing human MCT1, rescue from LC100 3BP
T2 construct: expressed in transfected cells
T2 sequence (P53985 1-500): T1 sequence (P53985 1-500)
T2 sequence (P26453 23-388 partner): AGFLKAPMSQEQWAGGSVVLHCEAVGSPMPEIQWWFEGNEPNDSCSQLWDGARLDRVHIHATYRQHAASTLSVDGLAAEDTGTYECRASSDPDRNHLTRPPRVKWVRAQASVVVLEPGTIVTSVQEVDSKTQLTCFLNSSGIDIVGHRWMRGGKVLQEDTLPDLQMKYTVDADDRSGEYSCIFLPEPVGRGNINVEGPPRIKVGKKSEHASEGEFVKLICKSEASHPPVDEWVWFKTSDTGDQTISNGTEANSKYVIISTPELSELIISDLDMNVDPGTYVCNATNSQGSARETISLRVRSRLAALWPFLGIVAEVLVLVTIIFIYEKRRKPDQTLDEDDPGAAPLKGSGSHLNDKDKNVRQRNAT
Experimental: Human MCT1-4 were stably expressed in INS-1 rat pancreatic islet B-cells, which are deficient in endogenous MCT expression. 3-Bromopyruvate (3BP), a highly reactive and cytotoxic monocarboxylate, can enter the INS-1 cells via the overexpressed MCT isoform, resulting in rapid cell death. However, prevention of 3BP transport into the cell by an MCT inhibitor can prevent 3BP-mediated cell death (FIG. 16).
INS-1 cells over-expressing an MCT paralog were treated with a titration of 3BP to determine the lowest concentration that results in 100% cell killing (LC100). The INS-1 cells were then pre-treated with a titration of Compound 67A before exposure to the LC100 concentration of 3BP specific for that MCT-over-expressing cell line, and rescue of cell viability was measured (FIG. 17).

Raji lymphoma cells = experiment: Seahorse XF ECAR and OCR measurement; conditions: Seahorse XF Analyzer
Experimental: The utilization of glycolysis and oxidative phosphorylation (OXPHOS) were measured by the extracellular acidification rate (ECAR) and oxygen consumption rate (OCR), respectively, in Raji lymphoma cells via the Seahorse XF Analyzer.

[3] = MDCK-II cells overexpressing human MCT1, TPGA transport, read-out: BioIVT MCT1 Transporter IC50

Row | Compound | IC50 (human MCT1 [1]; [3]) | IC50 (human MCT1 [2]) | IC50 (human MCT1 [1]; Canine MDCKII cells expressing human MCT1, LC-MS, read-out: inhibits 2-TPGA import, IC50) | extracellular acidification rate (ECAR) (Raji lymphoma cells) | oxygen consumption rate (OCR) (Raji lymphoma cells)
1 | O=C(Nc1ccccc1C(=O)O)c1cc(S(=O)(=O)c2ccccc2)ccc1Cl [BAY8002] | 0.05 to 0.15 µM | 1 to 10 µM | – | – | –
2 | CC(C)OC(=O)Nc1ccc(-c2cnc([C@H]3CC[C@H](NC(=O)OC(C)C)CC3)s2)c(S(=O)(=O)NC(C)(C)C)c1 [Compound 67A] | 0.05 to 0.15 µM | 0.1 to 1 µM | 0.134 µM | dose-dependent decrease in ECAR | concomitant increase in OCR
3 | AZD3965 | 0.15 to 1 µM | < 0.1 µM | – | – | –
